{"source": "patent US10131652B2", "about": "“Pyrimidinyloxy benzene derivatives as herbicides” (E. I. DU PONT DE NEMOURS AND COMPANY, priority 2014, dated 2018)", "assay_in_all_cases": "Test F pre-/postemergence plant response", "assay_type_in_all_cases": "in vivo", "conditions_in_all_cases": "scale 0 to 100", "key": {"[1]": {"test_system": "hairy beggarticks (Bidens pilosa)", "how_it_was_run": "(§1)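 In a greenhouse, compounds carried in a non-phytotoxic surfactant-containing solvent mixture were applied to soil at planting and to young 1- to 4-leaf plants. About two to three weeks (14 to 21 days) afterward, each species was compared with controls and rated visually from 0 to 100.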"}, "[2]": {"test_system": "goosegrass (Eleusine indica)", "how_it_was_run": "as §1"}, "[3]": {"test_system": "fall panicum (Panicum dichotomiflorum)", "how_it_was_run": "as §1"}, "[4]": {"test_system": "nightshade (eastern black nightshade, Solanum ptycanthum)", "how_it_was_run": "as §1"}, "corn (Zea mays)": {"test_system": "corn (Zea mays)", "how_it_was_run": "as §1"}, "[5]": {"test_system": "velvetleaf (Abutilon theophrasti)", "how_it_was_run": "as §1"}, "[6]": {"test_system": "palmer pigweed (Amaranthus palmeri)", "how_it_was_run": "as §1"}, "[7]": {"test_system": "sandbur (southern sandbur, Cenchrus echinatus)", "how_it_was_run": "as §1"}, "[8]": {"test_system": "Brazilian crabgrass (Digitaria horizontalis)", "how_it_was_run": "as §1"}, "[9]": {"test_system": "arrowleaf sida (Sida rhombifolia)", "how_it_was_run": "as §1"}}, "data": [{"smiles": "CC(F)(F)c1cc(-c2ccccc2Oc2ncc(Br)cn2)no1", "note": "[Compound 149]", "values": [{"measurement": "Plant response rating, Beggarticks", "setting": "[1]; 16 g ai/ha Postemergence", "result": 5}, {"measurement": "Plant response rating, Beggarticks", "setting": "[1]; 16 g ai/ha Preemergence", "result": 0}, {"measurement": "Plant response rating, Beggarticks", "setting": "[1]; 31 g ai/ha Postemergence", "result": 30}, {"measurement": "Plant response rating, Beggarticks", "setting": "[1]; 31 g ai/ha Preemergence", "result": 0}, {"measurement": "Plant response rating, Beggarticks", "setting": "[1]; 62 g ai/ha Postemergence", "result": 40}, {"measurement": "Plant response rating, Beggarticks", "setting": "[1]; 62 g ai/ha Preemergence", "result": 0}, {"measurement": "Plant response rating, Beggarticks", "setting": "[1]; 125 g ai/ha Postemergence", "result": 50}, {"measurement": "Plant response rating, Beggarticks", "setting": "[1]; 125 g ai/ha Preemergence", "result": 0}, {"measurement": "Plant response rating, Goosegrass", "setting": "[2]; 16 g ai/ha Preemergence", "result": 0}, {"measurement": "Plant response rating, Goosegrass", "setting": "[2]; 31 g ai/ha Preemergence", "result": 0}, {"measurement": "Plant response rating, Goosegrass", "setting": "[2]; 125 g ai/ha Preemergence", "result": 60}, {"measurement": "Plant response rating, Goosegrass", "setting": "[2]; Preemergence", "result": 40}, {"measurement": "Plant response rating, Panicum, Fall", "setting": "[3]; 16 g ai/ha Postemergence", "result": 10}, {"measurement": "Plant response rating, Panicum, Fall", "setting": "[3]; 16 g ai/ha Preemergence", "result": 0}, {"measurement": "Plant response rating, Panicum, Fall", "setting": "[3]; 31 g ai/ha Postemergence", "result": 20}, {"measurement": "Plant response rating, Panicum, Fall", "setting": "[3]; 31 g ai/ha Preemergence", "result": 80}, {"measurement": "Plant response rating, Panicum, Fall", "setting": "[3]; 62 g ai/ha Postemergence", "result": 20}, {"measurement": "Plant response rating, Panicum, Fall", "setting": "[3]; 125 g ai/ha Postemergence", "result": 40}, {"measurement": "Plant response rating, Panicum, Fall", "setting": "[3]; 125 g ai/ha Preemergence", "result": 100}, {"measurement": "Plant response rating, Panicum, Fall", "setting": "[3]; Preemergence", "result": 98}, {"measurement": "Plant response rating, Nightshade", "setting": "[4]; 16 g ai/ha Preemergence", "result": 0}, {"measurement": "Plant response rating, Nightshade", "setting": "[4]; 31 g ai/ha Preemergence", "result": 80}, {"measurement": "Plant response rating, Nightshade", "setting": "[4]; 125 g ai/ha Preemergence", "result": 100}, {"measurement": "Plant response rating, Nightshade", "setting": "[4]; Preemergence", "result": 98}, {"measurement": "Plant response rating, Corn", "setting": "corn (Zea mays); 16 g ai/ha Postemergence", "result": 0}, {"measurement": "Plant response rating, Corn", "setting": "corn (Zea mays); 16 g ai/ha Preemergence", "result": 0}, {"measurement": "Plant response rating, Corn", "setting": "corn (Zea mays); 31 g ai/ha Postemergence", "result": 10}, {"measurement": "Plant response rating, Corn", "setting": "corn (Zea mays); 31 g ai/ha Preemergence", "result": 0}, {"measurement": "Plant response rating, Corn", "setting": "corn (Zea mays); 62 g ai/ha Postemergence", "result": 10}, {"measurement": "Plant response rating, Corn", "setting": "corn (Zea mays); 62 g ai/ha Preemergence", "result": 0}, {"measurement": "Plant response rating, Corn", "setting": "corn (Zea mays); 125 g ai/ha Postemergence", "result": 15}, {"measurement": "Plant response rating, Corn", "setting": "corn (Zea mays); 125 g ai/ha Preemergence", "result": 0}, {"measurement": "Plant response rating, Velvetleaf", "setting": "[5]; 16 g ai/ha Preemergence", "result": 10}, {"measurement": "Plant response rating, Velvetleaf", "setting": "[5]; 31 g ai/ha Preemergence", "result": 70}, {"measurement": "Plant response rating, Velvetleaf", "setting": "[5]; 125 g ai/ha Preemergence", "result": 100}, {"measurement": "Plant response rating, Velvetleaf", "setting": "[5]; Preemergence", "result": 85}, {"measurement": "Plant response rating, Pigweed, Palmer", "setting": "[6]; 16 g ai/ha Postemergence", "result": 65}, {"measurement": "Plant response rating, Pigweed, Palmer", "setting": "[6]; 16 g ai/ha Preemergence", "result": 25}, {"measurement": "Plant response rating, Pigweed, Palmer", "setting": "[6]; 31 g ai/ha Postemergence", "result": 95}, {"measurement": "Plant response rating, Pigweed, Palmer", "setting": "[6]; 31 g ai/ha Preemergence", "result": 90}, {"measurement": "Plant response rating, Pigweed, Palmer", "setting": "[6]; 62 g ai/ha Postemergence", "result": 98}, {"measurement": "Plant response rating, Pigweed, Palmer", "setting": "[6]; 125 g ai/ha Postemergence", "result": 100}, {"measurement": "Plant response rating, Pigweed, Palmer", "setting": "[6]; 125 g ai/ha Preemergence", "result": 100}, {"measurement": "Plant response rating, Pigweed, Palmer", "setting": "[6]; Preemergence", "result": 100}, {"measurement": "Plant response rating, Sandbur", "setting": "[7]; 16 g ai/ha Postemergence", "result": 0}, {"measurement": "Plant response rating, Sandbur", "setting": "[7]; 16 g ai/ha Preemergence", "result": 0}, {"measurement": "Plant response rating, Sandbur", "setting": "[7]; 31 g ai/ha Postemergence", "result": 5}, {"measurement": "Plant response rating, Sandbur", "setting": "[7]; 31 g ai/ha Preemergence", "result": 0}, {"measurement": "Plant response rating, Sandbur", "setting": "[7]; 62 g ai/ha Postemergence", "result": 15}, {"measurement": "Plant response rating, Sandbur", "setting": "[7]; 125 g ai/ha Postemergence", "result": 10}, {"measurement": "Plant response rating, Sandbur", "setting": "[7]; 125 g ai/ha Preemergence", "result": 10}, {"measurement": "Plant response rating, Sandbur", "setting": "[7]; Preemergence", "result": 0}, {"measurement": "Plant response rating, Crabgrass, Brazil", "setting": "[8]; 16 g ai/ha Postemergence", "result": 20}, {"measurement": "Plant response rating, Crabgrass, Brazil", "setting": "[8]; 16 g ai/ha Preemergence", "result": 0}, {"measurement": "Plant response rating, Crabgrass, Brazil", "setting": "[8]; 31 g ai/ha Postemergence", "result": 20}, {"measurement": "Plant response rating, Crabgrass, Brazil", "setting": "[8]; 31 g ai/ha Preemergence", "result": 15}, {"measurement": "Plant response rating, Crabgrass, Brazil", "setting": "[8]; 62 g ai/ha Postemergence", "result": 20}, {"measurement": "Plant response rating, Crabgrass, Brazil", "setting": "[8]; 62 g ai/ha Preemergence", "result": 35}, {"measurement": "Plant response rating, Crabgrass, Brazil", "setting": "[8]; 125 g ai/ha Postemergence", "result": 25}, {"measurement": "Plant response rating, Crabgrass, Brazil", "setting": "[8]; 125 g ai/ha Preemergence", "result": 85}, {"measurement": "Plant response rating, Arrowleaf Sida", "setting": "[9]; 16 g ai/ha Postemergence", "result": 75}, {"measurement": "Plant response rating, Arrowleaf Sida", "setting": "[9]; 16 g ai/ha Preemergence", "result": 0}, {"measurement": "Plant response rating, Arrowleaf Sida", "setting": "[9]; 31 g ai/ha Postemergence", "result": 85}, {"measurement": "Plant response rating, Arrowleaf Sida", "setting": "[9]; 31 g ai/ha Preemergence", "result": 35}, {"measurement": "Plant response rating, Arrowleaf Sida", "setting": "[9]; 62 g ai/ha Postemergence", "result": 95}, {"measurement": "Plant response rating, Arrowleaf Sida", "setting": "[9]; 62 g ai/ha Preemergence", "result": 65}, {"measurement": "Plant response rating, Arrowleaf Sida", "setting": "[9]; 125 g ai/ha Postemergence", "result": 98}, {"measurement": "Plant response rating, Arrowleaf Sida", "setting": "[9]; 125 g ai/ha Preemergence", "result": 100}]}]}
